Experimental data from US10604514B2, “6-(5-membered heteroaryl)isoquinolin-3-yl carboxamides and preparation and use thereof” (Samumed, LLC, priority 2017, dated 2020).
Where two headings read alike, the source gives them in different places.

Assays:
[1] = tested on: Wnt activity (Sp5-Luc reporter in SW480 colon carcinoma cells); experiment: Wnt activity screening assay (Sp5-Luc reporter gene assay); assay type: cell-based, human
In short: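 Compounds at 10 points (1:3 steps, top 10 μM, 0.1% DMSO final) were incubated 36 to 48 h at 37° C with stable Sp5-Luc SW480 reporter cells in 1% FBS medium. Luciferase luminescence was then read and expressed relative to DMSO-only cells. Four-parameter variable-slope fitting yielded EC50 values.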

[2] = tested on: Tau phosphorylation at Ser396 (pSer396), SH-SY5Y cells; experiment: Tau phosphorylation at Ser396 (pSer396) in SH-SY5Y cells, ELISA/western blot; assay type: cell-based, human; conditions: Homo sapiens;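 also: cell lysates probed for reduced Tau pSer396 via ELISA (colorimetric) or western blot (chemiluminescence), both with one shared pSer396 antibody, EC50 for lowering phosphorylation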
Experimental: Two days before treatment, cells were seeded onto 96 well plates at 5×10^4 cells/well.
Wells were visually checked for cell death or change in morphology and supernatants were tested for cytotoxicity by measurement of lactate dehydrogenase release (LDH, CytoToxOne kit, Promega) if necessary.
Cells were lysed with RIPA buffer complemented with phosphatase and protease inhibitors then lysates were spun down at 12,000 g for 10 min to remove any cellular debris. Lysates are then either directly tested for pSer396 by ELISA (Life Technology, Kit KHB7031) or loaded on NuPage Bis-Tris gels for western blot analysis. Colorimetric detection of ELISA signal is performed by Cytation3 plate reader (Biotek) and the chemiluminescence signal for HRP-linked antibodies used in western blotting is detected using a Carestream Image Station. The same pSer396 antibody is used for detection of pTau in both assays.

IL-6 = IL-6 inhibition in LPS-stimulated human peripheral blood mononuclear cells (HTRF); assay type: cell-based; conditions: Homo sapiens, PBMC; for inhibition at 10 µM: read-out: percent value in parentheses below EC50 >10; for EC50: IL-6, LPS-stimulated huPBMCs, HTRF
In short: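 EC50 from a 4-parameter fit of DMSO-normalized HTRF (665/620 nm) IL-6 signal, duplicates. Compound was added to fresh human PBMCs in 1% FBS RPMI for 2 h (top 10 μM, 3-fold, 0.25% DMSO) before 22 h stimulation with LPS at 50 ng/mL, 37 °C.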

GSK3β kinase = GSK3β kinase (Homo sapiens (Human), UniProt P49841); experiment: GSK3β kinase assay (Ser/Thr 09 peptide Z-lyte, FRET); assay type: biochemical; conditions: method text calls the value IC50;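 also: Coumarin/fluorescein emission ratio converted to percent phosphorylation against unphosphorylated (0%) and phosphorylated (100%) controls, 1 h compound incubation at room temperature, 11-point threefold dilutions from 10 µM, run in duplicate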
Chain of GSK3β kinase (P49841 whole entry): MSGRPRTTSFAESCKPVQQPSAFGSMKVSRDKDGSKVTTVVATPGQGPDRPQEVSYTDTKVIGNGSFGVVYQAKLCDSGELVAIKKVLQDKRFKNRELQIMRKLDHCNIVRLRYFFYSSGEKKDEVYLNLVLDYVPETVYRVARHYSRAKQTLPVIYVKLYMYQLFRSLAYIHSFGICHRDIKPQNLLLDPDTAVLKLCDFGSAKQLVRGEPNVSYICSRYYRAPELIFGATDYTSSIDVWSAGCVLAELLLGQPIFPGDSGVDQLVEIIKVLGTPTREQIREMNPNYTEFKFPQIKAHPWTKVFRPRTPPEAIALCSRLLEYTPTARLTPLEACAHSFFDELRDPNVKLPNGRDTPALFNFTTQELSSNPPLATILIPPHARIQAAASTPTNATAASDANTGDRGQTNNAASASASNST
Experimental: Representative compounds were screened using the assay procedure for GSK30 kinase activity as described below.
Each compound is dissolved in DMSO as a 10 mM stock and used to prepare compound source plates. Serial dilution (1:3, 11-point dose-response curves from 10 M to 0.0003 μM) and compound transfer was performed using the ECHO 550 (Labcyte, Sunnyvale, Calif.) into 1536-well black-walled round bottom plates (Corning).
This is a non-radioactive assay using fluorescence resonance energy transfer (FRET) between coumarin and fluorescein to detect kinase activity which is represented as ratio of coumarin emission/fluorescein emission.
The mixture is allowed to incubate with the representative compounds for one hour at room temperature. All reactions were performed in duplicate. Unphosphorylated (“0% Control”) and phosphorylated (“100% control”) forms of Ser/Thr 18 serve as control reactions.
After incubation, diluted Development Buffer is added to the reaction and allowed to further incubate for one hour at room temperature.
The percent phosphorylation is then calculated using the following formula: [1−((Em ratio×F100%)−C100%)/((C0%−C100%)+(Em ratio×(F100%−F0%)))].
Dose-response curves are generated and inhibitory concentration (IC50) values are calculated using non-linear regression curve fit in the Dotmatics' Studies Software (Bishops Stortford, UK).

DYRK1A kinase = DYRK1A kinase (Homo sapiens (Human), UniProt Q13627); experiment: DYRK1A kinase assay (Ser/Thr 18 peptide Z-lyte, FRET)
Experimental: Each compound was dissolved in DMSO as a 10 mM stock and used to prepare compound source plates.
This is a non-radioactive assay using fluorescence resonance energy transfer (FRET) between coumarin and fluorescein to detect kinase activity which is represented as a ratio of coumarin emission/fluorescein emission.
The mixture was allowed to incubate with the representative compounds for one hour at room temperature. All reactions were performed in duplicate. Unphosphorylated (“0% Control”) and phosphorylated (“100% control”) forms of Ser/Thr 18 served as control reactions. Additionally, an 11-point dose-response curve of Staurosporine (1 uM top) was run to serve as a positive compound control.
After incubation, Development Reagent A was diluted in Development Buffer then added to the reaction and allowed to further incubate for one hour at room temperature.
The percent phosphorylation was then calculated using the following formula: [1−((Em ratio×F100%)−C100%)/((C0%−C100%)+(Em ratio×(F100%−F0%)))]. Dose-response curves were generated and inhibitory concentration (IC50) values were calculated using non-linear regression curve fit in the Dotmatics' Studies Software (Bishops Stortford, UK).

[3] = tested on: SW480 colon carcinoma cells; experiment: Cell viability assay (CellTiter-Glo) in SW480 cells; assay type: cell-based, human; conditions: Homo sapiens; for EC50: 96 h, cell viability, SW480 cells, four days, CellTiter-Glo;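 as to all read-outs here: SW480 cells stably carrying an Sp5-luciferase TCF/LEF reporter, luminescent ATP signal as viability measure, DMSO-treated cells as control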
Experimental: Representative compounds were screened using the assay procedure to assess the effect on cell viability as described below.
SW480 colon carcinoma cells were transduced with a lentiviral vector expressing luciferase with a human Sp5 promoter consisting of a sequence of eight TCF/LEF binding sites. SW480 cells stably expressing the Sp5-Luc reporter gene and a hygromycin resistance gene were selected by treatment with 150 μg/mL of hygromycin for 7 days. These stably transduced SW480 cells were expanded in cell culture and used for all further screening activities. Each compound was dissolved in DMSO as a 10 mM stock and used to prepare compound source plates.
For the Cell Viability Assays, the cells were plated at 2,000 cells/well in 384-well plates with a DMEM medium containing 1% fetal bovine serum, and 1% Penicillin-Streptomycin and incubated for four days hours at 37° C. and 5% CO2. Eight replicates of DMSO-treated cells served as controls and cells treated with compound were performed in duplicate.
After incubation, 10 μL of CellTiter-Glo (Promega) was added to each well allowed to incubate for approximately 12 minutes.
Dose-response curves were generated and EC50 concentration values were calculated using non-linear regression curve fit in the GraphPad Prism (San Diego, Calif.) or Dotmatics' Studies Software (Bishops Stortford, UK).

[4] = tested on: LL29 cells (primary human fibroblasts derived from IPF patients), α-smooth muscle actin; experiment: Inhibition of fibrotic process: αSMA in TGF-β1-treated primary human fibroblasts from IPF patients (LL29 cells); assay type: cell-based; conditions: Homo sapiens, Fibroblast; for EC50: 96 h, % αSMA-positive LL29 cells, TGF-β1 20 ng/mL, 4 days; for inhibition at 10 µM: read-out: percent inhibition at 10 μM
In short: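 Read-out is the percentage of αSMA-positive cells by high-content imaging, excluding SYTOX green-positive dead/apoptotic cells, normalized to TGF-β1-only wells on the same plate. LL29 cells were exposed for 4 days at 37 °C to 20 ng/mL TGF-β1 plus 11-point, 2-fold compound dilutions in 0.1% DMSO.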

[5] = Homo sapiens; Sp5-Luc reporter, SW480 cells, 36 to 48 hours
[6] = SH-SY5Y cells, overnight (16-18 h), read-out: pSer396 Tau EC50
[7] = DYRK1A kinase, method text calls the value IC50

| Structure (SMILES) | EC50 [1, 5] [nM] | EC50 [2, 6] [µM] | EC50 (IL-6) [nM] | EC50 (GSK3β kinase) [nM] | EC50 (DYRK1A kinase) [nM] | EC50 [3] [nM] | EC50 (DYRK1A kinase; [7]) [nM] | inhibition at 10 µM (IL-6) [%] | EC50 [4] [nM] | inhibition at 10 µM [4] [%] | inhibition at 10 µM ([1]; Homo sapiens, SW480; read-out: percent inhibition at 10 μM) [%] | inhibition at 10 µM ([1]; Homo sapiens, SW480, read-out: percent inhibition at 10 μM) [%] | EC50 ([2]; SH-SY5Y, read-out: pSer396 Tau EC50 (μM)) [µM] | inhibition at 10 µM ([3]; SW480, read-out: percent inhibition at 10 μM) [%] |
| --- | --- | --- | --- | --- | --- | --- | --- | --- | --- | --- | --- | --- | --- | --- |
| [2H]C1([2H])OC([2H])([2H])C([2H])([2H])N(C(=O)Nc2cc3cc(-c4cnc(C)n4C)ccc3cn2)C1([2H])[2H] [Compound 143, N-(6-(1,2-Dimethyl-1H-imidazol-5-yl)isoquinolin-3-yl)morpholine-d8-4-carboxamide] | 2940 | 7.2 | > 10000 | 1780 | 11 | 3360 |  | 5.7 | > 10000 | 40.4 |  |  |  |  |
| [2H]C([2H])([2H])N([C@H]1CC[C@H](C(=O)Nc2cc3cc(-c4cnc(C)o4)ccc3cn2)CC1)C([2H])([2H])[2H] [Compound 144, trans-4-(Bis(methyl-d3)amino)-N-(6-(2-methyloxazol-5-yl)isoquinolin-3-yl) cyclohexane-1-carboxamide] | > 10000 | > 10 | > 10000 | 21 | 20 | 3770 |  | 14.3 | 1380 |  | 35.8 |  |  |  |
| Cc1nnc(-c2ccc3cnc(NC(=O)N4CCN(C(C)C)CC4)cc3c2)s1 [Compound 146, 4-Isopropyl-N-(6-(5-methyl-1,3,4-thiadiazol-2-yl)isoquinolin-3-yl) piperazine-1-carboxamide] | 3110 | 1 | > 10000 | 62 |  | 3840 | 22 | 2.1 | > 10000 | 35.1 |  |  |  |  |
| Cc1nnc(-c2ccc3cnc(NC(=O)N4CCC(NCCC(F)(F)F)CC4)cc3c2)s1 [Compound 147, N-(6-(5-Methyl-1,3,4-thiadiazol-2-yl)isoquinolin-3-yl)-4-((3,3,3-trifluoropropyl)amino)piperidine-1-carboxamide] | 3330 | 1.1 | > 10000 | 37 |  | 4140 | 18 | 36.8 | 1640 |  |  |  |  |  |
| Cc1ncc(-c2ccc3cnc(NC(=O)[C@H]4CC[C@H](NCCC(F)(F)F)CC4)cc3c2)o1 [Compound 148, trans-N-(6-(2-Methyloxazol-5-yl)isoquinolin-3-yl)-4-((3,3,3-trifluoropropyl)amino)cyclohexane-1-carboxamide] | 3440 | 0.599 | 414 | 257 |  | 1200 | 14 |  | 286 |  |  |  |  |  |
| Cc1nnc(-c2ccc3cnc(NC(=O)N4[C@@H]5CC[C@H]4C[C@H](N)C5)cc3c2)s1 [Compound 151, (1R,5S)-3-exo-Amino-N-(6-(5-methyl-1,3,4-thiadiazol-2-yl)isoquinolin-3-yl)-8-azabicyclo[3.2.1]octane-8-carboxamide] | > 10000 |  | > 10000 | 103 |  | > 10000 | 9 | 13.1 | 2690 |  |  | 4.4 | 2.6 | 0 |
| Cc1ncc(-c2ccc3cnc(NC(=O)C4CCC(N5CC5CF)CC4)cc3c2)o1 (stereo not drawn) [Compound 154, trans-4-(2-(fluoromethyl)aziridin-1-yl)-N-(6-(2-methyloxazol-5-yl)isoquinolin-3-yl)cyclohexane-1-carboxamide] | 2760 | 0.58 | 1130 | 124 | 5 | 761 |  |  | 240 |  |  |  |  |  |
| Cc1nnc(-c2ccc3cnc(NC(=O)N4CCC(NCCF)CC4)cc3c2)s1 [Compound 156, 4-((2-Fluoroethyl)amino)-N-(6-(5-methyl-1,3,4-thiadiazol-2-yl)isoquinolin-3-yl)piperidine-1-carboxamide] | 2840 | 0.615 | > 10000 | 34 |  | 2550 | 7 | 28.8 | 2380 |  |  |  |  |  |
| [2H]c1c([2H])c([2H])c(C(=O)Nc2cc3cc(-c4cnc(C)n4C)ccc3cn2)c(Cl)c1[2H] [Compound 159, 2-Chloro-N-(6-(1,2-dimethyl-1H-imidazol-5-yl)isoquinolin-3-yl)benzamide-3,4,5,6-d4] | 4200 | > 10 | > 10000 | > 10000 | 27 | 8000 |  | 1.6 | > 10000 | 31.4 |  |  |  |  |

These reach a lower EC50 [1, 5]. Values come first.

| EC50 [1, 5] [nM] | EC50 [2, 6] [µM] | EC50 (IL-6) [nM] | EC50 (GSK3β kinase) [nM] | EC50 (DYRK1A kinase) [nM] | EC50 [3] [nM] | EC50 (DYRK1A kinase; [7]) [nM] | Structure (SMILES) | inhibition at 10 µM (IL-6) [%] | EC50 [4] [nM] | inhibition at 10 µM [4] [%] | inhibition at 10 µM ([1]; Homo sapiens, SW480; read-out: percent inhibition at 10 μM) [%] | inhibition at 10 µM ([1]; Homo sapiens, SW480, read-out: percent inhibition at 10 μM) [%] | EC50 ([2]; SH-SY5Y, read-out: pSer396 Tau EC50 (μM)) [µM] | inhibition at 10 µM ([3]; SW480, read-out: percent inhibition at 10 μM) [%] |
| --- | --- | --- | --- | --- | --- | --- | --- | --- | --- | --- | --- | --- | --- | --- |
| 2190 | 0.272 | > 10000 | 23 |  | 3920 | 13 | Cc1nnc(-c2ccc3cnc(NC(=O)N4CCC(N)CC4)cc3c2)s1 [Compound 150, 4-Amino-N-(6-(5-methyl-1,3,4-thiadiazol-2-yl)isoquinolin-3-yl)piperidine-1-carboxamide] | 5.7 | > 10000 | 43.7 |  |  |  |  |
| 1820 | 0.503 | 371 | 80 | 2 | 1490 |  | [2H]C([2H])([2H])N([C@H]1CC[C@H](C(=O)Nc2cc3cc(-c4cnn(C)c4)ccc3cn2)CC1)C([2H])([2H])[2H] [Compound 145, trans-4-(Bis(methyl-d3)amino)-N-(6-(1-methyl-1H-pyrazol-4-yl)isoquinolin-3-yl)cyclohexane-1-carboxamide] |  | 72 |  |  |  |  |  |
| 1730 | 0.72 | > 10000 | > 10000 | 19 | 2380 |  | [2H]c1c([2H])c([2H])c(C(=O)Nc2cc3cc(-c4cnc(C)n4C)ccc3cn2)c(F)c1[2H] [Compound 157, N-(6-(1,2-Dimethyl-1H-imidazol-5-yl)isoquinolin-3-yl)-2-fluorobenzamide-3,4,5,6-d4] | 0 | 5790 |  |  |  |  |  |
| 1400 | 1.1 | 379 | 128 |  | 1340 | 7 | Cc1ncc(-c2ccc3cnc(NC(=O)[C@H]4CC[C@H](N)CC4)cc3c2)o1 [Compound 149, trans-4-amino-N-(6-(2-methyloxazol-5-yl)isoquinolin-3-yl)cyclohexane-1-carboxamide] |  | 216 |  |  |  |  |  |
| 736 | > 10 | > 10000 | 5670 | 10 | 660 |  | [2H]C([2H])([2H])c1ccc(C(=O)Nc2cc3cc(-c4cnc(C)n4C)ccc3cn2)cc1 [Compound 161, N-(6-(1,2-Dimethyl-1H-imidazol-5-yl)isoquinolin-3-yl)-4-(methyl-d3) benzamide] | 42.2 | 3000 |  |  |  |  |  |
| 604 | > 10 | 5720 | 4270 | 5 | 795 |  | [2H]c1c([2H])c(C([2H])([2H])[2H])c([2H])c([2H])c1C(=O)Nc1cc2cc(-c3cnc(C)n3C)ccc2cn1 [Compound 163, N-(6-(1,2-Dimethyl-1H-imidazol-5-yl)isoquinolin-3-yl)-4-(methyl-d3) benzamide-2,3,5,6-d4] |  | 876 |  |  |  |  |  |
| 588 | > 10 | > 10000 | 5060 | 11 | 653 |  | [2H]c1c([2H])c(C(=O)Nc2cc3cc(-c4cnc(C)n4C)ccc3cn2)c([2H])c([2H])c1C [Compound 162, N-(6-(1,2-Dimethyl-1H-imidazol-5-yl)isoquinolin-3-yl)-4-methylbenzamide-2,3,5,6-d4] | 44.7 | 2000 |  |  |  |  |  |
| 514 | > 10 | 3360 | 2600 | 5 | 781 |  | [2H]c1c([2H])c(C(=O)Nc2cc3cc(-c4cnc(C)n4C)ccc3cn2)c([2H])c([2H])c1F [Compound 158, N-(6-(1,2-Dimethyl-1H-imidazol-5-yl)isoquinolin-3-yl)-4-fluorobenzamide-2,3,5,6-d4] |  | 1220 |  |  |  |  |  |
| 309 | > 10 | 3300 | 3030 | 4 | 415 |  | [2H]c1c([2H])c(C(=O)Nc2cc3cc(-c4cnc(C)n4C)ccc3cn2)c([2H])c([2H])c1Cl [Compound 160, 4-Chloro-N-(6-(1,2-dimethyl-1H-imidazol-5-yl)isoquinolin-3-yl)benzamide-2,3,5,6-d4] |  | 1010 |  |  |  |  |  |
